pIC50: −log10 of the molar value.
Molecular target: T1, Gastrin receptor (Cavia porcellus, UniProt H0VZC5)
T1 construct: The fundic mucosa is gently scraped off the submucosa; from tissue; host or cells: gastric glands from fundic mucosa of Hartley guinea pig
T1 sequence (H0VZC5 1-426): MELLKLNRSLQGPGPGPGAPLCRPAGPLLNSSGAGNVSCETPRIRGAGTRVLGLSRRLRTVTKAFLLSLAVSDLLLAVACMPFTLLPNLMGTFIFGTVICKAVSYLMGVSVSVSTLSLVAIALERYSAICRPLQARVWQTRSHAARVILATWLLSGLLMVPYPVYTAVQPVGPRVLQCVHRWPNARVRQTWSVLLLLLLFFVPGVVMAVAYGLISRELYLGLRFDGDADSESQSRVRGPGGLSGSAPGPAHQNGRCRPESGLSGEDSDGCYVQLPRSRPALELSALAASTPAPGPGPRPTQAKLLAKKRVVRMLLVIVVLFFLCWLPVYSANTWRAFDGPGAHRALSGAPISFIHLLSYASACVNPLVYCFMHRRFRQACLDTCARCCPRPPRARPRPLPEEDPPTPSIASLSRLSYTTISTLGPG
Assay: Gastrin receptor binding assay (displacement of 125I-(Leu-15)-Gastrin from guinea pig fundic glands)
Set-up: species or system guinea pig (Hartley Strain)
Details: guinea pig fundic mucosa glands, 25° C., 30 min, read-out: In vitro Binding Data IC50 Gastrin
How it was run: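 Isolated gastric fundic glands from Hartley guinea pig (collagenase digestion, 2x10^5 glands/ml) incubated 30 min at 25 °C under 95% O2/5% CO2 with tracer ^125I-(Leu-15)-gastrin and compound in triplicate. Bound tracer collected on glass fiber filters and gamma-counted; nonspecific defined with 25 μM (Leu-15)-gastrin stock. IC50 = concentration giving 50% loss of specific binding, from log-concentration plot.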

pIC50: 5.70
SMILES: CC(C)C[C@H](NC(=O)[C@H]1Cc2c([nH]c3ccccc23)CN1C(=O)Nc1cccc2ccccc12)C(=O)N[C@@H](CC(=O)O)C(N)=O [Example 67, N-[(3R)-2-(1-naphthylcarbamoyl)-1,2,3,4-tetrahydro-9H-pyrido[3,4-b]indole-3-carboxyl]-L-leucyl-L-aspartic acid amide]

Reference: patent US5162336A, “Tetrahydro-pyrido-indoles as cholecystokinin and gastrin antagonists” (Rhone-Poulenc Rorer Pharmaceuticals Inc., priority 1990, dated 1992)
